Values of other authors in publication PMC11676910, “Manganese(II) Complexes with Non-Steroidal Anti-Inflammatory Drugs: Structure and Biological Activity” (International Journal of Molecular Sciences, 2024).
Where two headings read alike, the source gives them in different places.

What was measured:
[1] = design: concentration or dose not given beside the values; conditions: free NSAID; cited from earlier work
CT DNA = conditions: cited from earlier work
EB–DNA adduct (CT DNA) = conditions: cited from earlier work
[2] = molecular target: bovine serum albumin (BSA) (Bos taurus, UniProt P02769); design: purchased Sigma–Aldrich Co; conditions: cited from earlier work
[3] = molecular target: human serum albumin (HSA) (Homo sapiens, UniProt P02768); design: purchased Sigma–Aldrich Co; conditions: cited from earlier work
human serum albumin (HSA), sequence (P02768 25-609): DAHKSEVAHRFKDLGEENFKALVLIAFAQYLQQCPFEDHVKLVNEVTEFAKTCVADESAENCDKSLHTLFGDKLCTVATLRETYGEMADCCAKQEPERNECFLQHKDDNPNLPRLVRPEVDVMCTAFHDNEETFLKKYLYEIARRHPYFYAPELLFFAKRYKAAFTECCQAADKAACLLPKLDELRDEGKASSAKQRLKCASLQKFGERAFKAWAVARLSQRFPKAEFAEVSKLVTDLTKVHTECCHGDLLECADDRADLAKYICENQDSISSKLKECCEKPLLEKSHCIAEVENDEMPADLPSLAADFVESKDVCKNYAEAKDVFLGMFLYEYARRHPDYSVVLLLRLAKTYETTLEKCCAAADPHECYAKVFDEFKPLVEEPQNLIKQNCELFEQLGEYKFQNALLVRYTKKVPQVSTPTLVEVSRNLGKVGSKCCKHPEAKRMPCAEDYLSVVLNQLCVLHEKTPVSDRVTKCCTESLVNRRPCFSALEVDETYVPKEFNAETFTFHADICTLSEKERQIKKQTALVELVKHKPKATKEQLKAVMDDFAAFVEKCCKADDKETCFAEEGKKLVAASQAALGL

bovine serum albumin (BSA), sequence (P02769 25-607): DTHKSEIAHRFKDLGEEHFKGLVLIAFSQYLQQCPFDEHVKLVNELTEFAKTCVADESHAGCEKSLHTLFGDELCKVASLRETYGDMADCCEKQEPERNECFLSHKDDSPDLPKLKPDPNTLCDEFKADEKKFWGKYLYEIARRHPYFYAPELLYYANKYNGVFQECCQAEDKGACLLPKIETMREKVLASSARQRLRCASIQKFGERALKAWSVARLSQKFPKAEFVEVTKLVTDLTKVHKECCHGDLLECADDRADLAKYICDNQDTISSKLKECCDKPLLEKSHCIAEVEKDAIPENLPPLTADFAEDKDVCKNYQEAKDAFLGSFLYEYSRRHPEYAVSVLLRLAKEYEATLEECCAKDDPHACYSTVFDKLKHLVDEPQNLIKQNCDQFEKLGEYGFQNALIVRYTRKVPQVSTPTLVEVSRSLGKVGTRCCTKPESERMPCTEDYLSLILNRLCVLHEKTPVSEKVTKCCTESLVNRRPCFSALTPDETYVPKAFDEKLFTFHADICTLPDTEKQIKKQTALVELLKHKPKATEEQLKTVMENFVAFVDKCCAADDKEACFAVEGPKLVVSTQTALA

Structure (SMILES)	% ABTS radical scavenging activity (ABTS%) [1] [%]	ΔA/A0 (%) hyper-/hypo-chromism of UV band (CT DNA; first band listed in the cell)	Δλ (nm) shift of λmax (CT DNA; first band listed in the cell)	ΔA/A0 (%) hyper-/hypo-chromism of UV band (CT DNA; second band listed in the cell)	Δλ (nm) shift of λmax (CT DNA; second band listed in the cell) [nm]	EB–DNA fluorescence quenching ΔI/Io (%) (EB–DNA adduct (CT DNA))	Stern–Volmer constant KSV (EB–DNA) (EB–DNA adduct (CT DNA))	quenching constant kq of the EB–DNA fluorescence (EB–DNA adduct (CT DNA))	BSA binding constant Κ(BSA) [2]	BSA quenching constant kq(BSA) [2]	HSA binding constant Κ(HSA) [3]	HSA quenching constant kq(HSA) [3]
O=C(O)c1ccccc1Nc1cccc(C(F)(F)F)c1 [Hfluf, flufenamic acid]	64.57 ± 0.43	+40%	+10 nm	< −50%	0	67.0	6.34 (±0.30) × 10^5 M^–1	2.76 (±0.13) × 10^13 M^–1s^–1	1.06 (±0.04) × 10^6 M^–1	1.83 (±0.20) × 10^13 M^–1s^–1	1.79 (±0.17) × 10^5 M^–1	1.86 (±0.21) × 10^12 M^–1s^–1
Cc1cccc(Nc2ccccc2C(=O)O)c1C [Hmef, mefenamic acid]	66.32 ± 0.38	+10%	0 nm			80.0	1.58 (±0.06) × 10^5 M^–1	6.87 (±0.26) × 10^12 M^–1s^–1	1.35 (±0.22) × 10^5 M^–1	2.78 (±0.20) × 10^13 M^–1s^–1	1.32 (±0.15) × 10^5 M^–1	7.13 (±0.34) × 10^12 M^–1s^–1
Cc1c(Cl)cccc1Nc1ccccc1C(=O)O [Htolf, tolfenamic acid]	59.43 ± 0.33	+40%	+5 nm	< −50%	−2	74.0	1.15 (±0.04) × 10^6 M^–1	5.00 (±0.17) × 10^13 M^–1s^–1	1.60 (±0.14) × 10^5 M^–1	2.18 (±0.12) × 10^13 M^–1s^–1	3.12 (±0.25) × 10^5 M^–1	6.10 (±0.38) × 10^12 M^–1s^–1
Cc1ccc(Cl)c(Nc2ccccc2C(=O)O)c1Cl [Na meclf, sodium meclofenamate]	59.48 ± 0.06	−12%	−1 nm	+5%	−2	80.1	8.20 (±0.26) × 10^4 M^–1	3.57 (±0.11) × 10^12 M^–1s^–1	1.78 (±0.11) × 10^6 M^–1	4.84 (±0.32) × 10^13 M^–1s^–1	1.05 (±0.03) × 10^6 M^–1	2.98 (±0.31) × 10^13 M^–1s^–1
